Assay results taken from publication PMC5063576, “High Potency VEGFRs/MET/FMS Triple Blockade by TAS-115 Concomitantly Suppresses Tumor Progression and Bone Destruction in Tumor-Induced Bone Disease Model with Lung Carcinoma Cells” (PLoS ONE, 2016).

Columns and labels:
VEGFR2 = VEGFR2 (Homo sapiens, UniProt P35968); assay: In vitro kinase assay, VEGFR2; type: biochemical; conditions: assay as described previously [16]
Protocol: (§1) Enzyme inhibition studies were performed using LANCE® Ultra TR-FRET assay technology. Briefly, 0.03 μg/mL dephospho-rhFMS and 100 nM ULightTM-poly GT (4:1) (PerkinElmer) were mixed and incubated for 40 min at 25°C in 10 μL of reaction mixture containing 100 μM ATP, 15 mM tris (hydroxymethyl) aminomethane (Tris (pH 7.5)), 0.01% (v/v) Tween 20, 5 mM MgCl2, 2 mM dithiothreitol and various concentrations of the test compound. […] By referring to the TR-FRET signals of positive (no inhibitor) and negative (EDTA was added before the reaction was started) control wells, the percent inhibition of each well was calculated and the half-maximal inhibitory concentration (IC50) value was determined using a four-parameter sigmoidal equation. The assay of MET and VEGFR2 kinase activity was performed as described previously.

[1] = system: FMS, ERK1/2 and AKT phosphorylation in MDBMs; assay: In vitro MDBM signaling, M-CSF-stimulated FMS phosphorylation; type: cell-based, mouse; conditions: 1 hr incubation, Western blotting
Protocol: (§2) For analysis of the expression and phosphorylation levels of FMS, MET and VEGFR2, MDBMs were cultured with hM-CSF (20000 U/mL) for 4 days (400000 cells/dish in Suspension Culture Dishes (Corning Inc., NY). The phosphorylation levels of FMS and downstream signaling molecules were then analyzed in these MDBMs following incubation for 1 hr with test compounds at the indicated concentration. The phosphorylation of MET or VEGFR2 was analyzed in these MDBMs following stimulation with rhHGF (100 ng/mL, 10 min) or rhVEGF (100 ng/mL, 5 min), respectively. After incubation, the MDBMs were harvested, the cells were lysed and target signaling proteins were detected by immunoblotting. For analysis of VEGFR2 and its phosphorylated form, the lysate was immunoprecipiated with an anti-VEGFR antibody prior to immunoblotting.

[2] = system: VEGFR2 phosphorylation in MDBMs; assay: In vitro MDBM signaling, rhVEGF-induced VEGFR2 phosphorylation; type: cell-based, mouse; conditions: rhVEGF 100 ng/mL 5 min, immunoprecipitation and Western blotting
Protocol: as §2

[3] = system: A549-Luc-BM1-implanted tibiae; assay: CD31 staining, microvessel density in bone lesion; type: in vivo, BALB/c nude mice; conditions: 2 weeks oral; TAS-115 100 mg/kg, cabozantinib 15, crizotinib 100, sunitinib 40 mg/kg; vs control
Protocol: (§3) On day 15, the mice were euthanized by cervical dislocation under isoflurane anesthesia, and their tibiae were collected. For CD31 staining, frozen sections (3 μm thick) were prepared using Kawamoto’s film method. Purified Rat Anti-Mouse CD31 (1:100, BD Pharmingen^TM) was detected using Simple Stain^TM Mouse MAX PO (Rat) (Nichirei) and 3,3’-diaminobenzidine (Dako, Glostrup, Denmark). For Ki-67 and TRAP staining, formalin-fixed paraffin-embedded sections (2 μm thick) were prepared. Anti-human Ki-67 Rabbit Monoclonal Antibody (1:50, Epitomics) was detected using the EnVisionTM^+ System (Dako). TRAP staining was performed using the TRAP/ALP Stain Kit (Wako Pure chemical Industries, Ltd.). To quantify each staining, whole slides were scanned under 20× magnification with the Aperio Scan-Scope XT Slide Scanner (Aperio Technologies, Inc., CA). To quantify CD31-positive microvessels as microvessel density (MVD, number/mm^2), four fields of tumor area per section excluding bone and necrotic tissue were analyzed by using Image-Pro Plus (Media Cybernetics, Inc., Carlsbad, CA). The mean values of the four areas were considered as the MVD of each animal. […] Ki-67-positive cells and total tumor cells were counted by using Image-Pro Plus. The Ki-67 index is expressed as a percentage (the number of Ki-67-positive tumor cells / the total number of the tumor cells × 100). The numbers of TRAP-positive osteoclasts were counted, and are expressed as the TRAP-positive osteoclast labeling index, (the number of TRAP-positive cells / the length of the boundary between tumor and trabecular bone (number/mm)). Cells that were TRAP-positive, had more than one nucleus, and were found on the surface of the bone, were identified as osteoclasts. The boundary length was calculated by Image-Pro Plus. All histopathological analyses were conducted in a blinded manner.

[4] = target: T1, Recombinant human FMS dephosphorylated with lambda phosphatase (dephospho-rhFMS) (Homo sapiens, UniProt P07333); assay: In vitro kinase assay, recombinant dephospho-FMS (LANCE Ultra TR-FRET); type: biochemical; conditions: 100 μM ATP
T1 sequence (P07333 538-972): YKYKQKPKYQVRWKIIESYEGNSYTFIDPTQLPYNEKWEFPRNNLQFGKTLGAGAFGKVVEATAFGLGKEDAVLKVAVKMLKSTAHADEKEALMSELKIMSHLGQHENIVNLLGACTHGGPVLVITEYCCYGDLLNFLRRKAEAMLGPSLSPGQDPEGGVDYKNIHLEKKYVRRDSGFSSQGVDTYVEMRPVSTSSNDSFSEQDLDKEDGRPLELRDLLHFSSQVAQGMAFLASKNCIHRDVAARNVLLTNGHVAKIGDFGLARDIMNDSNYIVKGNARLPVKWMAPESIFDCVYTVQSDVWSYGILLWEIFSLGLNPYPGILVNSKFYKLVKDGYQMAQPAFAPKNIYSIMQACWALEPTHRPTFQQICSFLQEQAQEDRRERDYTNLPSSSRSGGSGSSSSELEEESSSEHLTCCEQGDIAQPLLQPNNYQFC
Protocol: as §1

MET = MET (Homo sapiens, UniProt P08581); assay: In vitro kinase assay, MET; type: biochemical; conditions: assay as described previously [16]
Protocol: as §1

[5] = system: TRAP-positive osteoclasts at tumor-bone boundary; assay: TRAP staining of A549-Luc-BM1-implanted tibiae, osteoclast number; type: in vivo, BALB/c nude mice; conditions: 2 weeks oral; TAS-115 200, cabozantinib 15, sunitinib 40, crizotinib 100 mg/kg, combination; vs control
Protocol: as §3, with “CA).” for “CA). The mean values of the four areas were considered as the MVD of each animal.”, “The numbers of TRAP-positive osteoclasts were counted, and are expressed as the TRAP-positive osteoclast labeling index, (the number of TRAP-positive cells / the length of the boundary between tumor and trabecular bone (number/mm)). Cells that were TRAP-positive, had more than one nucleus, and were found on the surface of the bone, were identified as osteoclasts.” left out, “All histopathological analyses were conducted in a blinded manner.” left out

MET, sequence (P08581 25-1390): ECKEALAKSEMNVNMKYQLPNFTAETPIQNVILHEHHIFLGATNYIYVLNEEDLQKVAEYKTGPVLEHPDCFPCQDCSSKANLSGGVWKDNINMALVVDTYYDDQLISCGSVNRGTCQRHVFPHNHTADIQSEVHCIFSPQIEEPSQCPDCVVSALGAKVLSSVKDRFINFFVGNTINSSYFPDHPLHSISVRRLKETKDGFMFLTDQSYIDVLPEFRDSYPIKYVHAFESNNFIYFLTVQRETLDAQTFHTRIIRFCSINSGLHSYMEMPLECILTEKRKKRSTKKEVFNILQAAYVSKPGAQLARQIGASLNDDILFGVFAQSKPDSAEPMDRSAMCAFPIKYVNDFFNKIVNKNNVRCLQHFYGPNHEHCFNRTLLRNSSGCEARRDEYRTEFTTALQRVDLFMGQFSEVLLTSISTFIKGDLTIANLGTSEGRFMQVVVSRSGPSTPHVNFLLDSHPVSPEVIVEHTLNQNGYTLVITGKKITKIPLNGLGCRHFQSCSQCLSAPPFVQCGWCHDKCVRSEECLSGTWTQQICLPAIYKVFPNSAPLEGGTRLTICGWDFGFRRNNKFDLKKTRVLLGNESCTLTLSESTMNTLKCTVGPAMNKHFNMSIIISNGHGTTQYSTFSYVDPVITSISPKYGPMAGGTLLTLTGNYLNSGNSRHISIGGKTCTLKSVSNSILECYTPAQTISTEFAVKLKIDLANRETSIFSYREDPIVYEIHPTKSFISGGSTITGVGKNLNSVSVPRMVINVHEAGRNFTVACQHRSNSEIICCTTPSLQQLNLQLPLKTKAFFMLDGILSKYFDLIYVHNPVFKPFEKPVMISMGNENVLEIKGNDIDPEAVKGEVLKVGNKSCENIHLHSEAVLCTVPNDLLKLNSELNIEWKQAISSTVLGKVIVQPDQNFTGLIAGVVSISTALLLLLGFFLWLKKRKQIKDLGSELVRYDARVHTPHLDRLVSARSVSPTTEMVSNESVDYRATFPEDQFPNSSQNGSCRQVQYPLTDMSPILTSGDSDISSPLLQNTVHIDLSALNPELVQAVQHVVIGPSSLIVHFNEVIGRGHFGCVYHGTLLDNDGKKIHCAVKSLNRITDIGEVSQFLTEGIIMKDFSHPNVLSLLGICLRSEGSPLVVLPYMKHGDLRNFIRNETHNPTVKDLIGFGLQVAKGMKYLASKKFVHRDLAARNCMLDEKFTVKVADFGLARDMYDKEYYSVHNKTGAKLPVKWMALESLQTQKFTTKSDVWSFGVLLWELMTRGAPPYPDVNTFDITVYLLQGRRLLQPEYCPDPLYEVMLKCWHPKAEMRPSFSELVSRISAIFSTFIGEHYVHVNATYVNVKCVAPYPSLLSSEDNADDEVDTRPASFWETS
VEGFR2, sequence (P35968 20-1356, species assumed): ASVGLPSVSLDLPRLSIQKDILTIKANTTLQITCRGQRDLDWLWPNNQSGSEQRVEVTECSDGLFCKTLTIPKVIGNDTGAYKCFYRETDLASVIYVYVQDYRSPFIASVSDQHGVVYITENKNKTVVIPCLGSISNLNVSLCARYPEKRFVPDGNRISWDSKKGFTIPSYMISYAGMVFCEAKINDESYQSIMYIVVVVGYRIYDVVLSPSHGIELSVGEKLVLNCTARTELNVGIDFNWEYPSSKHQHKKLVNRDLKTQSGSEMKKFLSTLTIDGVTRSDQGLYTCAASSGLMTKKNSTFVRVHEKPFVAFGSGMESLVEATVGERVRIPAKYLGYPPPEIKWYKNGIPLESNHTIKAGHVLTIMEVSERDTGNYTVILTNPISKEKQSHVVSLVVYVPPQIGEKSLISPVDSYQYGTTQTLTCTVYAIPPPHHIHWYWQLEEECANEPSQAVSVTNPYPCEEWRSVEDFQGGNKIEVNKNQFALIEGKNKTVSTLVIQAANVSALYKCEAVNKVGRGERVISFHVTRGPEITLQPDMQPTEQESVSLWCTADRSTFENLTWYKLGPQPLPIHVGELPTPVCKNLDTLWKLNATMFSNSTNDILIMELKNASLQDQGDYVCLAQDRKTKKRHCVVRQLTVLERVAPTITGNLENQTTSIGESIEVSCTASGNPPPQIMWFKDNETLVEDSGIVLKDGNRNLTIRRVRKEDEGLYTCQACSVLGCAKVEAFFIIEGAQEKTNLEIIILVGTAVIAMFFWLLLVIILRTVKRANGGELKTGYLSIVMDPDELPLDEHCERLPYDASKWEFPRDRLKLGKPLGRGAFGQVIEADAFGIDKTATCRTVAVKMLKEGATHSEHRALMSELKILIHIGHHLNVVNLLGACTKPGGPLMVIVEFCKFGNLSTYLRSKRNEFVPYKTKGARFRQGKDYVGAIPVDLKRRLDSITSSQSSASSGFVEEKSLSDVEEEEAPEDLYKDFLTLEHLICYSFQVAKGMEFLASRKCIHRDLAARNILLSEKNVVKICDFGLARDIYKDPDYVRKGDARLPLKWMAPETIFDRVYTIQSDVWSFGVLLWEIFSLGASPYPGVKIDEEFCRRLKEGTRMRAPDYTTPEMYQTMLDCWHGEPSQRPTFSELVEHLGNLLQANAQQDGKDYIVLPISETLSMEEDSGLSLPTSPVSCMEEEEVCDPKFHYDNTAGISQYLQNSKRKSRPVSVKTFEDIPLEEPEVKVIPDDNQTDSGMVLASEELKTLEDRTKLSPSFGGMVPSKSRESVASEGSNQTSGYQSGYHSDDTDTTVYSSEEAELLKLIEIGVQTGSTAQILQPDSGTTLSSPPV

Structure (SMILES): CNC(=O)c1cc2c(Oc3ccc(NC(=S)NC(=O)Cc4ccccc4)cc3F)ccnc2cc1OC [TAS-115, 4-[2-fluoro-4-[[[(2-phenylacetyl)amino]thioxomethyl]amino]-phenoxy] -7-methoxy-N-methyl-6-quinolinecarboxamide]
- IC50 (VEGFR2): 30 nM
- concentration markedly inhibiting M-CSF-stimulated phosphorylation of FMS, ERK1/2 and AKT [1]: greater than 0.03 μM
- concentration inhibiting the phosphorylation of VEGFR2 [2]: greater than 0.03 μM
- microvessel density (MVD) within the tumor area in the bone lesion [3]: significantly reduced
- IC50 [4]: 15 nM
- IC50 (MET): 32 nM
- number of TRAP-positive osteoclasts at tumor-bone boundary [5]: significantly decreased
